Laboratory results: the CheMixHub ionic liquid set

Assay: xn = mol fraction of the nth substance listed

CCCCCCCCCCCC[N+](C)(C)C.[Br-] + O
Conditions	electrical conductivity [S/m]	viscosity [mPa·s]
303.15 K, 100 kPa, x1 = 0.0001622	–	0.774
303.15 K, 100 kPa, x1 = 0.0002162	–	0.775
303.15 K, 100 kPa, x1 = 0.0002702	–	0.777
303.15 K, 100 kPa, x1 = 0.0003242	–	0.78
303.15 K, 100 kPa, x1 = 0.0003783	–	0.784
303.15 K, 100 kPa, x1 = 0.0004323	–	0.786
303.15 K, 100 kPa, x1 = 0.0004863	–	0.799
303.15 K, 100 kPa, x1 = 0.0005403	–	0.803
303.15 K, 101 kPa, x1 = 5.406e-05	–	0.772
303.15 K, 101 kPa, x1 = 0.0001081	–	0.772
303.15 K, 101 kPa, x1 = 0.0001622	–	0.774
303.15 K, 101 kPa, x1 = 0.0002162	–	0.775
303.15 K, 101 kPa, x1 = 0.0002702	–	0.778
303.15 K, 101 kPa, x1 = 0.0003242	–	0.78
303.15 K, 101 kPa, x1 = 0.0003783	–	0.785
303.15 K, 101 kPa, x1 = 0.0004323	–	0.786
303.15 K, 101 kPa, x1 = 0.0004863	–	0.799
303.15 K, 101 kPa, x1 = 0.0005403	–	0.802
308 K, 101 kPa, x1 = 0.0001513	0.078	–
308 K, 101 kPa, x1 = 0.0001694	0.085	–
308 K, 101 kPa, x1 = 0.0001892	0.094	–
308 K, 101 kPa, x1 = 0.0002486	0.121	–
308 K, 101 kPa, x1 = 0.0002774	0.135	–
308 K, 101 kPa, x1 = 0.0003945	0.155	–
308.15 K, 100 kPa, x1 = 5.406e-05	–	0.696
308.15 K, 100 kPa, x1 = 0.0001081	–	0.697
308.15 K, 100 kPa, x1 = 0.0001622	–	0.698
308.15 K, 100 kPa, x1 = 0.0002162	–	0.699
308.15 K, 100 kPa, x1 = 0.0002702	–	0.701
308.15 K, 100 kPa, x1 = 0.0003242	–	0.705
308.15 K, 100 kPa, x1 = 0.0003783	–	0.708
308.15 K, 100 kPa, x1 = 0.0004323	–	0.711
308.15 K, 100 kPa, x1 = 0.0004863	–	0.715
308.15 K, 100 kPa, x1 = 0.0005403	–	0.716
308.15 K, 101 kPa, x1 = 5.406e-05	–	0.696
308.15 K, 101 kPa, x1 = 0.0001081	–	0.697
308.15 K, 101 kPa, x1 = 0.0001622	–	0.698
308.15 K, 101 kPa, x1 = 0.0002162	–	0.699
308.15 K, 101 kPa, x1 = 0.0002702	–	0.701
308.15 K, 101 kPa, x1 = 0.0003242	–	0.705
308.15 K, 101 kPa, x1 = 0.0003783	–	0.709
308.15 K, 101 kPa, x1 = 0.0004323	–	0.711
308.15 K, 101 kPa, x1 = 0.0004863	–	0.714
308.15 K, 101 kPa, x1 = 0.0005403	–	0.716
313.15 K, 100 kPa, x1 = 5.406e-05	–	0.611
313.15 K, 100 kPa, x1 = 0.0001081	–	0.612
313.15 K, 100 kPa, x1 = 0.0001622	–	0.614
313.15 K, 100 kPa, x1 = 0.0002162	–	0.617
313.15 K, 100 kPa, x1 = 0.0002702	–	0.617
313.15 K, 100 kPa, x1 = 0.0003242	–	0.62
313.15 K, 100 kPa, x1 = 0.0003783	–	0.624
313.15 K, 100 kPa, x1 = 0.0004323	–	0.626
313.15 K, 100 kPa, x1 = 0.0004863	–	0.628
313.15 K, 100 kPa, x1 = 0.0005403	–	0.63
318 K, 101 kPa, x1 = 0.0001513	0.08	–
318 K, 101 kPa, x1 = 0.0001748	0.09	–
318 K, 101 kPa, x1 = 0.0001964	0.101	–
318 K, 101 kPa, x1 = 0.0002252	0.113	–
318 K, 101 kPa, x1 = 0.0002486	0.125	–
318 K, 101 kPa, x1 = 0.000317	0.152	–
318 K, 101 kPa, x1 = 0.0003369	0.157	–
318 K, 101 kPa, x1 = 0.0003945	0.165	–
318 K, 101 kPa, x1 = 0.0004305	0.169	–
318.15 K, 100 kPa, x1 = 5.406e-05	–	0.582
318.15 K, 100 kPa, x1 = 0.0001081	–	0.584
318.15 K, 100 kPa, x1 = 0.0001622	–	0.585
318.15 K, 100 kPa, x1 = 0.0002162	–	0.587
318.15 K, 100 kPa, x1 = 0.0002702	–	0.588
318.15 K, 100 kPa, x1 = 0.0003242	–	0.589
318.15 K, 100 kPa, x1 = 0.0003783	–	0.59
318.15 K, 100 kPa, x1 = 0.0004323	–	0.591
318.15 K, 100 kPa, x1 = 0.0004863	–	0.592
318.15 K, 100 kPa, x1 = 0.0005403	–	0.593
